The values below are quoted from earlier work in publication PMC3735122 (mBio, 2013).

The series deals with seasonal H3N2 isolates with R292K NA mutation. To be noted: cited from earlier work.

As for `CCC(CC)O[C@@H]1C=C(C(=O)O)C[C@H](N)[C@H]1NC(C)=O` [oseltamivir carboxylate], the “sensitivity of seasonal H3N2 isolates with R292K mutation” value (“sensitivity of seasonal H3N2 isolates” below) was “significantly reduced sensitivity”.
As for `CCC(CC)[C@H](NC(C)=O)[C@@H]1[C@H](O)[C@@H](C(=O)O)C[C@H]1N=C(N)N` [peramivir], the “sensitivity of seasonal H3N2 isolates” value is reported as “intermediate resistance”.
For `CC(=O)N[C@H]1[C@H]([C@H](O)[C@H](O)CO)OC(C(=O)O)=C[C@@H]1N=C(N)N` [zanamivir], the “sensitivity of seasonal H3N2 isolates” value is “slightly reduced sensitivity”.
